Data reported in patent US11970713B2, “Method for long-term ex vivo maintenance or expansion of human erythroblast, human megakaryocyte-erythroid progenitor, or human common myeloid progenitor cell and application thereof” (OCGENE THERAPEUTICS CORPORATION, priority 2020, dated 2024).
“Also recorded” adds a separate entry of the source.

System: human umbilical cord blood mononuclear cells
Assay: Cell expansion in E6 medium with different tankyrase inhibitors, removal of SB590885 or CHIR99021, or different XAV939 concentrations (Example 6)
Format: cell-based
Conditions: XAV939 between 0.2 μM and 2 μM in E6 + 3i
Procedure: 2×10^6 of human umbilical cord blood mononuclear cells were cultured in E6 medium supplemented with 3i composition (the same as that in EXAMPLE 1) as a control group; and 2×10^6 of human umbilical cord blood mononuclear cells were cultured in E6 medium supplemented with 3i+X composition (the same as that in EXAMPLE 1) as experimental groups, wherein X presented the tankyrase inhibitor, and different tankyrase inhibitors were selected from JW55, RK-287107, WIKI4, XAV939 or TC-E5001 in different experimental groups.
Additionally, the inventors investigated effect of removal of SB590885, removal of CHIR99021, or experience of different concentrations of XAV939 on cell expansion. The cell counting results were shown in Tables 2, 3, and 4, respectively.

With `Oc1nc(-c2ccc(C(F)(F)F)cc2)nc2c1CSCC2` [XAV939] the “Effect of XAV939 concentration on expanded cell numbers” value was “about the same; also recorded: can promote cell expansion”.
